Numbered stars: 1 amine (or outer) side, 2 acyl side, 3 side chain; on linkers, the order of the positions; unused ones are H or OH. Square brackets hold non-standard residues; d marks the D form. Side chains are listed from the residue outwards. Peptide text beside a SMILES is read from it. * marks the point of attachment. C20 diacid = O=C(O)CCCCCCCCCCCCCCCCCCC(=O)*; αMePhe(2-F) = C[C@](N)(Cc1ccccc1F)C(=O)O; γGlu = O=C(O)[C@H](CCC(=O)[*:2])N[*:1]; 3Pal = N[C@@H](Cc1cccnc1)C(=O)O; 4Pal = N[C@@H](Cc1ccncc1)C(=O)O; αMeL = CC(C)C[C@](C)(N)C(=O)O; AEEA = NCCOCCOCC(=O)O; Aib = CC(C)(N)C(=O)O

Experiment [1] deals with T1, human Gcg receptor (Homo sapiens, UniProt P47871).
T1 construct: expressed in transfected cells; crude membranes
T1 sequence (P47871 26-477): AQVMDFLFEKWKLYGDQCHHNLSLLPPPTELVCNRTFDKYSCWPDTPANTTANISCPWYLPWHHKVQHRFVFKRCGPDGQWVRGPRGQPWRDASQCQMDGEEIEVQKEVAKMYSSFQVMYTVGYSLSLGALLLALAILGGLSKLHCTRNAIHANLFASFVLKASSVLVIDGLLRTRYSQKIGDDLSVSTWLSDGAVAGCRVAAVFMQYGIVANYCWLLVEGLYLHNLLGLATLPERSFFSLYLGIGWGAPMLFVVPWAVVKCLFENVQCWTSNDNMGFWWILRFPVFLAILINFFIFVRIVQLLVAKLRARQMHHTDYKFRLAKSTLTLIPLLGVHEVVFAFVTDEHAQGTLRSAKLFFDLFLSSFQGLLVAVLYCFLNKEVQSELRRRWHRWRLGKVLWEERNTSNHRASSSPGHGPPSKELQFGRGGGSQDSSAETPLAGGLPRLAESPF
The experiment is described as follows: [125I]-Glucagon binding (SPA), human Gcg receptor. Conditions: read-out: hGLcgR Ki, nM (SEM, n). A digest of the protocol: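 Crude membranes from cells expressing the receptor, prepared by hypotonic lysis in 50 mM Tris HCl pH 7.5 with protease inhibitors, homogenization and differential centrifugation, were used in a WGA-bead SPA. Binding buffer: 25 mM HEPES pH 7.4, 2.5 mM CaCl2, 1 mM MgCl2, bacitracin, Tween-20.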

The target in experiment [2] is T2, human GIP receptor (Homo sapiens, UniProt P48546).
T2 construct: expressed in transfected cells; crude membranes
T2 sequence (P48546 22-466): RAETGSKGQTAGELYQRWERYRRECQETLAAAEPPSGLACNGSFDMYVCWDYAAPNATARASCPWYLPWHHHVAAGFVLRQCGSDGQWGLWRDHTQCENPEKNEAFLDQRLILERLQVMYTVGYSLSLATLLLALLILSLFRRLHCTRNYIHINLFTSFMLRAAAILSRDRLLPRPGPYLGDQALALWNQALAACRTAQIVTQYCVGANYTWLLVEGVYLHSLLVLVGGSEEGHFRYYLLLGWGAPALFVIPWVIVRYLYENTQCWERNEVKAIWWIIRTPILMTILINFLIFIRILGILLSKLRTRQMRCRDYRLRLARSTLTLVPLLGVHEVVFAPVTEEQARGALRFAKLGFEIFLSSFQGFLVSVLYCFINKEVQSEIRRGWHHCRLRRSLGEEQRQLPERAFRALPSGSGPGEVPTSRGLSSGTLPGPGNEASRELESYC
Briefly: [125I]-GIP binding (SPA), human GIP receptor. The conditions noted are these: read-out: hGIPR Ki, nM (SEM, n).

For experiment [3], the target named is human GLP-1 receptor (GLP-1R) (Homo sapiens, UniProt P43220). Briefly: cAMP pharmacological functional assay in presence of casein, hGLP-1R. Format: cell-based. The conditions noted are these: HEK293 cells expressing hGLP-1R, 0.1% Casein, geometric mean; read-out: hGLP1R cAMP Rel EC50 nM (SEM, n).
Sequence of human GLP-1 receptor (GLP-1R) (P43220 24-463): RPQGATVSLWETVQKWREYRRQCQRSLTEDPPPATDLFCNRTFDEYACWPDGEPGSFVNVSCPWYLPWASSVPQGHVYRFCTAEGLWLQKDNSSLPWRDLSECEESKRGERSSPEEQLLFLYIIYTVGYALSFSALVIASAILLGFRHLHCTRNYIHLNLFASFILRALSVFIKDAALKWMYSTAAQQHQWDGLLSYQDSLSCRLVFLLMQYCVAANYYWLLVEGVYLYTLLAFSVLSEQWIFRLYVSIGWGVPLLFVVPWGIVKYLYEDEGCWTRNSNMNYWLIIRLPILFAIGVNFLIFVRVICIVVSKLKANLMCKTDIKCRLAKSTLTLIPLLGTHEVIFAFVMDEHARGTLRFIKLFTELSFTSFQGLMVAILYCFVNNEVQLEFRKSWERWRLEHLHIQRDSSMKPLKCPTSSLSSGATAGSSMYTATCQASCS
For experiment [4], the target named is T3, gastric inhibitory peptide receptor (GIPR) (Homo sapiens, UniProt P48546).
T3 sequence (P48546 22-466): T2 sequence (P48546 22-466)
Briefly: cAMP pharmacological functional assay in presence of casein, hGIPR. Format: cell-based. Conditions: HEK293 cells expressing hGIPR, 0.1% Casein, geometric mean; read-out: hGIPR cAMP Rel EC50 nM (SEM, n).

The target in experiment [5] is human GLP-1R (Homo sapiens, UniProt P43220). Briefly: [125I]-GLP-1 binding (SPA), human GLP-1 receptor. The conditions noted are these: read-out: hGLP1R Ki, (nM) (SEM, n). On the set-up: expressed in transfected cells; crude membranes. In short, it runs like this: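 Assay buffer: HEPES 25 mM, pH 7.4, CaCl2 2.5 mM, MgCl2 1 mM, with EDTA-free protease inhibitors. Receptor came from crude cell membranes prepared by homogenization and centrifugation at 4° C. IC50s came from four-parameter fits (maximum, minimum, IC50, Hill slope) and were expressed as Ki geometric means with SEM.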
Sequence of human GLP-1R (P43220 24-463): as above

As for `CC[C@H](C)[C@H](NC(=O)[C@H](CC(C)C)NC(=O)[C@H](Cc1ccc(O)cc1)NC(=O)C(C)(C)NC(=O)[C@@H](NC(=O)[C@H](Cc1ccccc1)NC(=O)[C@H](CCC(=O)O)NC(=O)C(C)(C)NC(=O)[C@H](CCC(N)=O)NC(=O)[C@H](C)NC(=O)[C@H](CCCCNC(=O)COCCOCCNC(=O)COCCOCCNC(=O)CC[C@H](NC(=O)CCCCCCCCCCCCCCCCCCC(=O)O)C(=O)O)NC(=O)[C@H](CCC(=O)O)NC(=O)[C@H](CC(=O)O)NC(=O)[C@H](CC(C)C)NC(=O)[C@](C)(CC(C)C)NC(=O)[C@@H](NC(=O)[C@H](CO)NC(=O)[C@H](Cc1ccc(O)cc1)NC(=O)[C@H](CC(=O)O)NC(=O)[C@H](CO)NC(=O)[C@@H](NC(=O)[C@](C)(Cc1ccccc1F)NC(=O)[C@@H](NC(=O)CNC(=O)[C@H](CCC(=O)O)NC(=O)C(C)(C)NC(=O)[C@@H](N)Cc1ccc(O)cc1)[C@@H](C)O)[C@@H](C)O)[C@@H](C)CC)[C@@H](C)CC)C(=O)N[C@@H](CCC(=O)O)C(=O)NCC(=O)NCC(=O)N1CCC[C@H]1C(=O)N[C@@H](CO)C(=O)N[C@@H](CO)C(=O)NCC(=O)N[C@@H](C)C(=O)N1CCC[C@H]1C(=O)N1CCC[C@H]1C(=O)N1CCC[C@H]1C(=O)N[C@@H](CO)C(N)=O` [Example 152] (H-Y[Aib]EGT[αMePhe(2-F)]TSDYSI[αMeL]LDEK([AEEA-AEEA-γGlu-C20 diacid])AQ[Aib]EFI[Aib]YLIEGGPSSGAPPPS-NH2), the Ki (as a rule, a dissociation constant, usually derived from enzyme kinetics or from competition with a known ligand) in experiment [1] turned out to be 93.4 nM; in experiment [2], 0.117 nM; in experiment [5] it was 48 nM. The values for the EC50 in experiment [3] and in experiment [4] were 0.0915 nM and 0.0504 nM, respectively.

Regarding `CC[C@H](C)[C@H](NC(=O)[C@H](CC(C)C)NC(=O)[C@H](Cc1ccc(O)cc1)NC(=O)[C@H](Cc1c[nH]cn1)NC(=O)[C@@H](NC(=O)[C@H](Cc1ccccc1)NC(=O)[C@H](CCC(=O)O)NC(=O)C(C)(C)NC(=O)[C@H](CCC(N)=O)NC(=O)[C@H](C)NC(=O)[C@H](CCCCNC(=O)COCCOCCNC(=O)COCCOCCNC(=O)CC[C@H](NC(=O)CCCCCCCCCCCCCCCCCCC(=O)O)C(=O)O)NC(=O)[C@H](CCC(=O)O)NC(=O)[C@H](CC(=O)O)NC(=O)[C@H](CC(C)C)NC(=O)[C@](C)(CC(C)C)NC(=O)[C@@H](NC(=O)[C@H](CO)NC(=O)[C@H](Cc1ccc(O)cc1)NC(=O)[C@H](CC(=O)O)NC(=O)[C@H](CO)NC(=O)[C@@H](NC(=O)[C@](C)(Cc1ccccc1F)NC(=O)[C@@H](NC(=O)CNC(=O)[C@H](CCC(=O)O)NC(=O)C(C)(C)NC(=O)[C@@H](N)Cc1ccc(O)cc1)[C@@H](C)O)[C@@H](C)O)[C@@H](C)CC)[C@@H](C)CC)C(=O)N[C@@H](CCC(=O)O)C(=O)NCC(=O)NCC(=O)N1CCC[C@H]1C(=O)N[C@@H](CO)C(=O)N[C@@H](CO)C(=O)NCC(=O)N[C@@H](C)C(=O)N1CCC[C@H]1C(=O)N1CCC[C@H]1C(=O)N1CCC[C@H]1C(=O)N[C@@H](CO)C(N)=O` [Example 153] (H-Y[Aib]EGT[αMePhe(2-F)]TSDYSI[αMeL]LDEK([AEEA-AEEA-γGlu-C20 diacid])AQ[Aib]EFIHYLIEGGPSSGAPPPS-NH2; N-terminus assumed), the Ki stood at 43.8 nM in experiment [1], 0.0578 nM in experiment [2] and 22.2 nM in experiment [5]. For the same compound, the EC50 (commonly the concentration needed to bring the measured effect to its halfway point) in experiment [3] was 0.0904 nM; in experiment [4], 0.0634 nM.

For `CC[C@H](C)[C@H](NC(=O)[C@H](CC(C)C)NC(=O)[C@H](Cc1ccc(O)cc1)NC(=O)[C@H](CCC(=O)O)NC(=O)[C@@H](NC(=O)[C@H](Cc1ccccc1)NC(=O)[C@H](CCC(=O)O)NC(=O)C(C)(C)NC(=O)[C@H](CCC(N)=O)NC(=O)[C@H](C)NC(=O)[C@H](CCCCNC(=O)COCCOCCNC(=O)COCCOCCNC(=O)CC[C@H](NC(=O)CCCCCCCCCCCCCCCCCCC(=O)O)C(=O)O)NC(=O)[C@H](CCC(=O)O)NC(=O)[C@H](CC(=O)O)NC(=O)[C@H](CC(C)C)NC(=O)[C@](C)(CC(C)C)NC(=O)[C@@H](NC(=O)[C@H](CO)NC(=O)[C@H](Cc1c[nH]cn1)NC(=O)[C@H](CC(=O)O)NC(=O)[C@H](CO)NC(=O)[C@@H](NC(=O)[C@](C)(Cc1ccccc1F)NC(=O)[C@@H](NC(=O)CNC(=O)[C@H](CCC(=O)O)NC(=O)C(C)(C)NC(=O)[C@@H](N)Cc1ccc(O)cc1)[C@@H](C)O)[C@@H](C)O)[C@@H](C)CC)[C@@H](C)CC)C(=O)N[C@@H](CCC(=O)O)C(=O)NCC(=O)NCC(=O)N1CCC[C@H]1C(=O)N[C@@H](CO)C(=O)N[C@@H](CO)C(=O)NCC(=O)N[C@@H](C)C(=O)N1CCC[C@H]1C(=O)N1CCC[C@H]1C(=O)N1CCC[C@H]1C(=O)N[C@@H](CO)C(N)=O` [Example 154] (H-Y[Aib]EGT[αMePhe(2-F)]TSDHSI[αMeL]LDEK([AEEA-AEEA-γGlu-C20 diacid])AQ[Aib]EFIEYLIEGGPSSGAPPPS-NH2), the Ki amounted to 762 nM in experiment [1], 0.061 nM in experiment [2] and 5.64 nM in experiment [5]. The EC50 in experiment [3] was 0.0393 nM; in experiment [4], 0.0266 nM.

As for `CC[C@H](C)[C@H](NC(=O)[C@H](CC(C)C)NC(=O)[C@H](Cc1ccc(O)cc1)NC(=O)[C@H](CCC(=O)O)NC(=O)[C@@H](NC(=O)[C@H](Cc1ccccc1)NC(=O)[C@H](CCC(=O)O)NC(=O)C(C)(C)NC(=O)[C@H](CCC(N)=O)NC(=O)[C@H](C)NC(=O)[C@H](CCCCNC(=O)COCCOCCNC(=O)COCCOCCNC(=O)CC[C@H](NC(=O)CCCCCCCCCCCCCCCCCCC(=O)O)C(=O)O)NC(=O)[C@H](CCC(=O)O)NC(=O)[C@H](CC(=O)O)NC(=O)[C@H](CC(C)C)NC(=O)[C@](C)(CC(C)C)NC(=O)[C@@H](NC(=O)[C@H](CO)NC(=O)[C@H](Cc1cccnc1)NC(=O)[C@H](CC(=O)O)NC(=O)[C@H](CO)NC(=O)[C@@H](NC(=O)[C@](C)(Cc1ccccc1F)NC(=O)[C@@H](NC(=O)CNC(=O)[C@H](CCC(=O)O)NC(=O)C(C)(C)NC(=O)[C@@H](N)Cc1ccc(O)cc1)[C@@H](C)O)[C@@H](C)O)[C@@H](C)CC)[C@@H](C)CC)C(=O)N[C@@H](CCC(=O)O)C(=O)NCC(=O)NCC(=O)N1CCC[C@H]1C(=O)N[C@@H](CO)C(=O)N[C@@H](CO)C(=O)NCC(=O)N[C@@H](C)C(=O)N1CCC[C@H]1C(=O)N1CCC[C@H]1C(=O)N1CCC[C@H]1C(=O)N[C@@H](CO)C(N)=O` [Example 157] (H-Y[Aib]EGT[αMePhe(2-F)]TSD[3Pal]SI[αMeL]LDEK([AEEA-AEEA-γGlu-C20 diacid])AQ[Aib]EFIEYLIEGGPSSGAPPPS-NH2), the Ki amounted to 179 nM in experiment [1], 0.0937 nM in experiment [2] and 8.97 nM in experiment [5]. Besides, the EC50 in experiment [3] was determined as 0.0431 nM; in experiment [4] it was 0.0453 nM.

On to `CC[C@H](C)[C@H](NC(=O)[C@H](CC(C)C)NC(=O)[C@H](Cc1ccc(O)cc1)NC(=O)[C@H](CCC(=O)O)NC(=O)[C@@H](NC(=O)[C@H](Cc1ccccc1)NC(=O)[C@H](CCC(=O)O)NC(=O)C(C)(C)NC(=O)[C@H](CCC(N)=O)NC(=O)[C@H](C)NC(=O)[C@H](CCCCNC(=O)COCCOCCNC(=O)COCCOCCNC(=O)CC[C@H](NC(=O)CCCCCCCCCCCCCCCCCCC(=O)O)C(=O)O)NC(=O)[C@H](CCC(=O)O)NC(=O)[C@H](CC(=O)O)NC(=O)[C@H](CC(C)C)NC(=O)[C@](C)(CC(C)C)NC(=O)[C@@H](NC(=O)[C@H](CO)NC(=O)[C@H](Cc1ccncc1)NC(=O)[C@H](CC(=O)O)NC(=O)[C@H](CO)NC(=O)[C@@H](NC(=O)[C@](C)(Cc1ccccc1F)NC(=O)[C@@H](NC(=O)CNC(=O)[C@H](CCC(=O)O)NC(=O)C(C)(C)NC(=O)[C@@H](N)Cc1ccc(O)cc1)[C@@H](C)O)[C@@H](C)O)[C@@H](C)CC)[C@@H](C)CC)C(=O)N[C@@H](CCC(=O)O)C(=O)NCC(=O)NCC(=O)N1CCC[C@H]1C(=O)N[C@@H](CO)C(=O)N[C@@H](CO)C(=O)NCC(=O)N[C@@H](C)C(=O)N1CCC[C@H]1C(=O)N1CCC[C@H]1C(=O)N1CCC[C@H]1C(=O)N[C@@H](CO)C(N)=O` [Example 158] (H-Y[Aib]EGT[αMePhe(2-F)]TSD[4Pal]SI[αMeL]LDEK([AEEA-AEEA-γGlu-C20 diacid])AQ[Aib]EFIEYLIEGGPSSGAPPPS-NH2; N-terminus assumed), for which the Ki in experiment [1] was 285 nM; in experiment [2], 0.114 nM; in experiment [5], 11.8 nM. In addition, the EC50 in experiment [3] amounted to 0.0374 nM; in experiment [4], 0.0454 nM.

The record behind these values is patent US12252524B2, “GIP/GLP1 co-agonist compounds” (Eli Lilly and Company, priority 2018, dated 2025).
